In patent US11135214B2, “Methods for enhancing the bio availability and exposure of a voltage-gated potassium channel opener” (priority 2018, dated 2021):
“And” between values parts separate entries of the source, which are not always exact repeats. Equal entries are not always repeated. Where two headings read alike, the source gives them in different places.

Test: TMS crossover study, pharmacokinetic analysis
Format: in vivo, human
Conditions: for extrapolated area (% AUCextrap): full PK data set; for Compound A Plasma Concentration: individual subjects; for Cmax: read-out: Cmax
Description: A randomized, double-blind, placebo-controlled, transcranial magnetic stimulation (TMS) crossover study investigated the safety, tolerability, pharmacokinetics (PK), and pharmacodynamics (PD) of single doses of Compound A in healthy right-handed male subjects.
Twenty healthy right-handed male subjects were enrolled and randomized in a blinded fashion to receive a single oral dose of 20 mg Compound A or placebo (1:1 randomization ratio) on Day 1, then were crossed over to receive a single dose of the other treatment on Day 7.
Subjects were screened within 27 days prior to entering the study on Day 1. For Period 1, subjects were admitted to the study unit and dosed on Day 1, and discharged on Day 2. For Period 2, following a washout of 6 days, the same subjects were again admitted to the study unit and dosed on Day 7, and discharged on Day 8. All subjects returned to the clinical unit for an outpatient visit on Day 14, and received a follow-up telephone call on Day 37.
Subjects were dosed in a fed state, but the timing of dosing relative to meals was changed during the study, and varied between a high fat or standard meal eaten either 2 h or 30 minutes prior to dosing, and a high fat or standard meal eaten 1 h or 2.5 h after dosing.
The PK parameters for this study were summarized in two ways. Firstly, PK parameters were calculated where possible using the PK samples collected during each 24 h sampling period for Period 1 and Period 2 separately. Secondly, PK parameters were determined using samples beyond the 24 h sampling period (i.e., from Day 7/8 and/or Day 14). For subjects who received Compound A in the first period, PK samples taken prior to placebo treatment provided additional PK timepoints at >24 h. For subjects who received Compound A in the second period, there was no >24 h PK timepoint until a Day 14 PK sample was added. […] The full PK profile data set consists of the 16 subjects for whom PK samples were taken at >24 h post-dose. For discussion of the PK parameters below, the full PK profile data set was generally used, because it allowed more accurate estimation of PK parameters.
Initially, subjects were dosed 2 hours after a high fat meal with a relatively high fat lunch provided 1 hour after dosing. After blinded review of the PK profiles in the initial 8 subjects, the fat content of the lunch was reduced in an attempt to reduce the time to Tmax, so that the Cmax would fall within the timeframe of TMS measurements. In addition, the timing of the meal relative to dose was changed from 2 hours prior, to 30 minutes prior to dose and subsequently the fat content of the breakfast was reduced. All these changes were made in attempts to provide higher plasma levels during the TMS assessment periods. The timing and type of meal for each subject is specified in Table 13. […] As such the PK data is presented without categorization according to meal content, or relative timing of the meal.

[1] = 20 mg, Full PK Profile Data Set (N=16), Range
[2] = male, human, plasma, oral, 20 mg, Full PK Profile (N=16), Mean ± SD
[3] = male, human, plasma, oral, 20 mg, Full PK Profile (N=16), Range
[4] = male, human, plasma, oral, 20 mg, Full PK Profile Data Set (N=16), Mean ± SD
[5] = male, human, plasma, oral, 20 mg, Full PK Profile Data Set (N=16), Range

Structure (SMILES): Cc1cc(N2CCc3cc(F)ccc3C2)cc(C)c1NC(=O)CC(C)(C)C [Compound A, N-[4-(6-fluoro-3,4-dihydro-1H-isoquinolin-2-yl)-2,6-dimethylphenyl]-3,3-dimethylbutanamide]
- time of median peak plasma concentrations after administration (20 mg oral dose): approximately 8 hours
- Tlast (20 mg, Full PK Profile (N=16), Mean ± SD): 235 ± 81.5 h
- Tlast (20 mg, Full PK Profile (N=16), Range): 142 to 360 h
- MRTinf [1]: 33 ± 304 h
- t1/2 [1]: 48.2 ± 306 h
- Tlast (20 mg, Overall (N=20), Mean): 23.8 h
- Tlast (20 mg, Overall (N=20), Range): 23.1 to 24.3 h
- Tlast (20 mg, Period 1 (N=10), Mean): 23.8 h
- Tlast (20 mg, Period 1 (N=10), Range): 23.1 to 24.3 h
- Tlast (20 mg, Period 2 (N=10), Mean): 23.8 h
- Tlast (20 mg, Period 2 (N=10), Range): 23.5 to 24.1 h
- % AUCextrap, highest values (20 mg, a number of subjects above 20%): ≤ 40%
- extrapolated area (% AUCextrap) (20 mg, median): 19.9%
- extrapolated area (% AUCextrap) (20 mg, range): 10.6-40.5%
- Compound A Plasma Concentration (Compound A Treatment Period, 20 mg, 2 h, 5 minutes before TMS): 47.2 ng/mL and 1.55 ng/mL and 34 ng/mL and 0 ng/mL (5×) and 55.2 ng/mL and 10.6 ng/mL and 47.1 ng/mL and 3.1 ng/mL and 1.95 ng/mL and 25.7 ng/mL and 2.74 ng/mL and 10.7 ng/mL and 2.52 ng/mL and 8.01 ng/mL
- Compound A Plasma Concentration (Compound A Treatment Period, 20 mg, 4 h, 5 minutes before TMS): 38.7 ng/mL and 8.92 ng/mL and 48.4 ng/mL and 16.5 ng/mL and 50 ng/mL and 24.5 ng/mL and 38 ng/mL and 4.91 ng/mL and 2.54 ng/mL and 29.8 ng/mL and 4.06 ng/mL and 60.7 ng/mL and 22.3 ng/mL and 32.7 ng/mL and 52.1 ng/mL and 8.77 ng/mL and 41.9 ng/mL
- Compound A Plasma Concentration (Compound A Treatment Period, 20 mg, 6 h, 5 minutes before TMS): 49.7 ng/mL and 71.2 ng/mL and 48.5 ng/mL and 47.0 ng/mL and 39.1 ng/mL and 37.6 ng/mL and 4.43 ng/mL and 51.9 ng/mL and 6.23 ng/mL and 57.6 ng/mL and 53.2 ng/mL and 54.9 ng/mL and 52.2 ng/mL and 25.1 ng/mL and 79.4 ng/mL
- Compound A Plasma Concentration (Placebo Treatment Period (carry-over), 2 h): 0 ng/mL (9×) and 4.96 ng/mL and 5.27 ng/mL and 6.28 ng/mL and 3.81 ng/mL and 5.74 ng/mL and 3.94 ng/mL and 7.44 ng/mL and 8.04 ng/mL
- Compound A Plasma Concentration (Placebo Treatment Period (carry-over), 4 h): 0 ng/mL (9×) and 4.35 ng/mL and 4.48 ng/mL and 5.51 ng/mL and 3.6 ng/mL and 5.36 ng/mL and 3.66 ng/mL and 6.83 ng/mL and 8.15 ng/mL
- Compound A Plasma Concentration (Placebo Treatment Period (carry-over), 6 h): 0 ng/mL (8×) and 5.56 ng/mL and 5.75 ng/mL and 3.42 ng/mL and 5.61 ng/mL and 3.44 ng/mL and 6.67 ng/mL and 8.22 ng/mL
- Average high concentration of Compound A (during TMS assessment (FIG. 11, 12)): 45 ng/mL
- concentration at 2 h (male, human, plasma, oral, 20 mg, Compound A Treatment Period, 2 h, Mean): 15.9 ng/mL
- concentration at 4 h (male, human, plasma, oral, 20 mg, Compound A Treatment Period, 4 h, Mean): 30.1 ng/mL
- concentration at 6 h (male, human, plasma, oral, 20 mg, Compound A Treatment Period, 6 h, Mean): 42.1 ng/mL
- half-life [2]: 127 ± 84.6 h
- AUC(0-t) (male, human, plasma, oral, 20 mg, Full PK Profile (N=16), Mean ± SD, read-out: AUC0-24): 692 ± 151 ng·h/mL
- Cmax [2]: 60.1 ± 14.9 ng/mL
- Tmax (male, human, plasma, oral, 20 mg, Full PK Profile (N=16), Median): 6.83 h
- Tmax [3]: 1.92 to 12 h
- half-life [3]: 48.2 to 306 h
- AUC(0-t) (male, human, plasma, oral, 20 mg, Full PK Profile (N=16), Range, read-out: AUC0-24): 383 to 951 ng·h/mL
- Cmax [3]: 29.9 to 79.4 ng/mL
- AUC(0-inf) [4]: 3160 ng·h/mL
- MRT inf [4]: 102 h
- MRT last [4]: 77.4 ± 23.7 h
- half-life [4]: 127 h
- AUC(0-t) (male, human, plasma, oral, 20 mg, Full PK Profile Data Set (N=16), Mean ± SD, read-out: AUClast): 2370 ng·h/mL
- CL/F (male, human, plasma, oral, 20 mg, Full PK Profile Data Set (N=16), Mean ± SD, read-out: CL/F normalized (converted)): 1.62 mL/min/kg
- Vd/F (male, human, plasma, oral, 20 mg, Full PK Profile Data Set (N=16), Mean ± SD, read-out: Vz/F normalized): 16.3 L/kg
- AUC(0-inf) [5]: 1920 ± 7390 ng·h/mL
- MRT inf [5]: 33 to 304 h
- MRT last [5]: 48.2 ± 122 h
- half-life [5]: 48.2 to 306 h
